Assay results published in patent US20040115626A1, “Human pgc-1 promoter” (priority 2000, published 2004).

What was measured:
hPGC-1 promoter = hPGC-1 promoter luciferase reporter assay in transiently transfected L6 cells; format: cell-based; settings: for activity at 1 µM: 1 μM compound; for activity at 1 µM / activity at 5 µM / activity at 25 µM: reporter vector phPGC1(2.2)Luc, luciferase activity relative to no compound; for activity at 5 µM: 5 μM compound; for activity at 25 µM: 25 μM compound; for promoter activating ability relative to the case of adding no compound: at compound final concentration of 1 μM, 5 μM or 25 μM, phPGC1(2.2)Luc
Procedure: Various reporter vectors shown in FIG. 1 were transiently transfected into L6 cells. Specifically, L6 cells were cultured in a tissue culture dish having a diameter of 10 cm and at the time when it was reached 50% confluent, 5 μg of the above plasmid and 1.5 μg of a plasmid pCH110 containing β-galactosidase gene controlled by β-actin promoter were used in combination in order to standardize gene transfection efficiency and the plasmids were introduced into the cells using FuGENE™6 (BOEHRINGER MANNHEIM, USA, 1814 443). After 24 hours, the cells were transferred into a 96-well culture dish, followed by additional 6 hours of culture. From the reports until now, since it is known that 9-cis-RETINOIC ACID (one of vitamin A acids) increases the expression of PGC-1 gene derived from mouse in cells (Cell, 92, 829-839 (1998)), 9-cis-RETINOIC ACID (SIGMA, USA, R4643) having a final concentration of 1 μM was added and the mixture was treated for 24 hours. Then, the cells were dissolved with a cell dissolving liquid LCβ (Toyo Ink, Japan) and luciferase activity thereof was measured using a PicaGene Luminescent Kit (Toyo Ink, Japan, 309-04321). By the way, all the activity measurements were carried out three times per measurement and each experiment was repeated at least twice to confirm the reproducibility.
Each reporter activity was standardized by β-galactosidase activity and expressed by a relative value wherein the value in the case of adding no compound was regarded as 1. In L6 cells, hPGC-1 reporter was increased a maximum of about 2.5 times by the treatment with 9-cis-RETINOIC ACID and thus a result consistent with the report that the expression of PGC-1 gene derived from mouse was enhanced by 9-cis-RETINOIC ACID was obtained.
Using the reporter vector phPGC1(2.2)Luc in the method described in Example 5, screening of a compound stimulating an hPGC-1 promoter activity was carried out wherein commercially available compounds were used as test compounds. […] By the way, Compound B, Compound E and Compound G are commercially available as the code number 4K@UH1-646 of INTERBIOSCREEN, as the code number MS0447 of MARLIN and as the code number A1773/0075171 of ZELINSKY, respectively and are 5-(4-fluorobenzylidene)-2,4-thiazolidinedione, 5-(4-bromobenzylidene)-2,4-thiazolidinedione, 2-(3-aminophenyl)-5-benzoyl-(1H)-benzimidazole, respectively.

L6 cells = assay: Measurement of mitochondrial enzymatic activity (WST-1 mitochondrial dehydrogenase colorimetric assay) in L6 cells; format: cell-based, rat; settings: for activity at 1 µM / activity at 5 µM / activity at 25 µM: Rattus norvegicus, 24 hours, relative to no compound
Procedure: Rat myoblast L6 (ATCC, CRL-1458) was maintained Dulbecco's modified Eagle medium containing 10% fetal bovine serum (GIBCO BRL, USA, 11965-092) and cultured in a wet air containing 5% CO2 at 37° C.
For the investigation of mitochondrial enzymatic activity of cells, a reagent WST-1 (DOJINDO, 342-06451) was used, which enabled the measurement of mitochondrial dehydrogenase activity of living cells by colorimetric assay method. Specifically, L6 cells were cultured in a tissue culture dish having a diameter of 10 cm and after reached confluent, the cells were transferred into a 96-well tissue culture dish. At that time, the medium was changed to Dulbecco's modified Eagle medium containing no Phenol Red (GIBCO BRL, USA, 21063-029). […] After the addition of each compound and 24 hours of treatment, the medium containing the compound was sucked and discarded and thereto were added 100 μl of Dulbecco's modified Eagle medium containing no Phenol Red and no fetal bovine serum and 10 μL of PBS containing 5 mM WST-1 and 0.2 mM 1-Methoxy PMS (DOJINDO, 345-04001). After 4 hours of reaction at 37° C., absorbance was measured at a measuring wavelength of 450 nm. In this regard, all the activity measurements were carried out three times per measurement and each experiment was repeated at least twice to confirm the reproducibility.
Tables 2(a) and 2(b) show the results of 9-cis-RETINOIC ACID and the compounds obtained in Example 6, respectively. Each value was expressed by a relative value wherein the absorbance of the sample containing no cell was subtracted as a background from each absorbance and the value in the case of adding no compound was regarded as 1. […] As mentioned above, it was shown that substances stimulating an hPGC-1 promoter activity have an action to activate mitochondrial enzymes.

Question: Which results are given for `O=C1NC(=O)C(=Cc2ccc(Br)cc2)S1` [Compound E, 5-(4-bromobenzylidene)-2,4-thiazolidinedione]?
Answer: activity at 1 µM (hPGC-1 promoter): 146%; activity at 5 µM (hPGC-1 promoter): 208%; activity at 25 µM (hPGC-1 promoter): 157%; promoter activating ability relative to the case of adding no compound (hPGC-1 promoter): more than twice; activity at 1 µM (L6 cells): 102%; activity at 5 µM (L6 cells): 141%; activity at 25 µM (L6 cells): 285%

Question: What does the source list for `Nc1cccc(-c2nc3cc(C(=O)c4ccccc4)ccc3[nH]2)c1` [Compound G, 2-(3-aminophenyl)-5-benzoyl-(1H)-benzimidazole]?
Answer: activity at 1 µM (hPGC-1 promoter): 207%; activity at 5 µM (hPGC-1 promoter): 175%; activity at 25 µM (hPGC-1 promoter): 91%; promoter activating ability relative to the case of adding no compound (hPGC-1 promoter): more than twice; activity at 1 µM (L6 cells): 80%; activity at 5 µM (L6 cells): 102%; activity at 25 µM (L6 cells): 176%

Question: What does the source list for `O=C1NC(=O)C(=Cc2ccc(F)cc2)S1` [Compound B, 5-(4-fluorobenzylidene)-2,4-thiazolidinedione]?
Answer: activity at 1 µM (hPGC-1 promoter): 160%; activity at 5 µM (hPGC-1 promoter): 203%; activity at 25 µM (hPGC-1 promoter): 202%; promoter activating ability relative to the case of adding no compound (hPGC-1 promoter): more than twice; activity at 1 µM (L6 cells): 94%; activity at 5 µM (L6 cells): 121%; activity at 25 µM (L6 cells): 175%

Question: For `CC1=C(/C=C/C(C)=C\C=C\C(C)=C\C(=O)O)C(C)(C)CCC1` [9-cis-RETINOIC ACID, reference compound], which “increase of hPGC-1 reporter activity (maximum)” value (hPGC-1 promoter; 1 μM, 24 hours, normalized with β-galactosidase, no compound = 1, maximum over the reporter vectors) is on record?
Answer: about 2.5 times

Question: And the reporter activity (hPGC-1 promoter; 1 μM, 24 hours, reporter vector hPGC1(0.1)Luc)?
Answer: completely lost

Question: What about the “activity enhancement (9-cis-RETINOIC ACID responsibility) of reporter” value (hPGC-1 promoter; 1 μM, 24 hours, reporter vectors hPGC1(0.2)Luc to hPGC1(5.2)Luc) of the same compound?
Answer: strongly observed

Question: And the “mitochondrial enzymatic activity (statement in words)” value (L6 cells; 24 hours treatment, Dunnett test)?
Answer: increased mitochondrial enzymatic activity with a significant difference
